Calls of active or inactive are those of the source.
Columns and labels:
[1] = molecular target: Beta-2 adrenergic receptor (Homo sapiens, UniProt P07550); assay: beta2AR agonists driving receptor internalization, dose response, cell-based, FAP fluorogen, flow cytometry, cherry pick 1 (AID 588763); format: functional
[2] = molecular target: T1, Apoptotic protease-activating factor 1 (Homo sapiens, UniProt O14727); format: functional
T1 sequence (O14727 whole entry): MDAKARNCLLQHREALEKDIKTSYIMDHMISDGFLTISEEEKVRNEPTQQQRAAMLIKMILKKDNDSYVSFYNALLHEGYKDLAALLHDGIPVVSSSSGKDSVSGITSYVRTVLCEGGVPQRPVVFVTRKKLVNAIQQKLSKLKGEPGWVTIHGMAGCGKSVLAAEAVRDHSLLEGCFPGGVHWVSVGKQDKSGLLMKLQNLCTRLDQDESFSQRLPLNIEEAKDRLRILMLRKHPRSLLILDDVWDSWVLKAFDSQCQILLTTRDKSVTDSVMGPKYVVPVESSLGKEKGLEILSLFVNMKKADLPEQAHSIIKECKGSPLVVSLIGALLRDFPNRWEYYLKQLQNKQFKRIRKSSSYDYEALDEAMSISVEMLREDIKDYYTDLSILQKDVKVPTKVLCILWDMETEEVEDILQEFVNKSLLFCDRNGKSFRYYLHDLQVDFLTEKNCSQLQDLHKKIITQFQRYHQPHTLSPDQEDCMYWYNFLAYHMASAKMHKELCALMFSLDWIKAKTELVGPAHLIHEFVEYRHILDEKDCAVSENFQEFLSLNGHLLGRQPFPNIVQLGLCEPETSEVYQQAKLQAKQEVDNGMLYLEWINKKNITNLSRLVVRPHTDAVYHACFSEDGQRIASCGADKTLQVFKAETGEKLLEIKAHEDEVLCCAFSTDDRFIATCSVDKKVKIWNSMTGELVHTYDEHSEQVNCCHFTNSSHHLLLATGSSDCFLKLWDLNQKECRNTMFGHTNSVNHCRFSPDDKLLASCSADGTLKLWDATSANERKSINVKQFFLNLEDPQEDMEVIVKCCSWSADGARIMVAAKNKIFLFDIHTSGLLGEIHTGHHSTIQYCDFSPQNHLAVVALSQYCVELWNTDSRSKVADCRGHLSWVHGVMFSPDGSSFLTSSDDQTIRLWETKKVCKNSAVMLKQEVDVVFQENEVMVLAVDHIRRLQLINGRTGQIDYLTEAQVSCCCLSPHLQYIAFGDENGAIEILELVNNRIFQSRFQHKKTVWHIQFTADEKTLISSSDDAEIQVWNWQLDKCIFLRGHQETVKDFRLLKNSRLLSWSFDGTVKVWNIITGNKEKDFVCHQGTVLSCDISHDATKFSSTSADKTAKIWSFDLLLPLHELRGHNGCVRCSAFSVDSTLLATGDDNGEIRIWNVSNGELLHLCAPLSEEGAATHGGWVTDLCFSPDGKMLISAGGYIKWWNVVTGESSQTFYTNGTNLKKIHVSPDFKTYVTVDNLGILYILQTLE

[3] = molecular target: Tyrosine-protein phosphatase non-receptor type 5 (Homo sapiens, UniProt P54829); assay: STEP phosphatase inhibitors, confirmation, biochemical, fluorescence intensity, uHTS hits (AID 602372); format: functional; details: read-out: IC50_Mean
Tyrosine-protein phosphatase non-receptor type 5, sequence (P54829 whole entry): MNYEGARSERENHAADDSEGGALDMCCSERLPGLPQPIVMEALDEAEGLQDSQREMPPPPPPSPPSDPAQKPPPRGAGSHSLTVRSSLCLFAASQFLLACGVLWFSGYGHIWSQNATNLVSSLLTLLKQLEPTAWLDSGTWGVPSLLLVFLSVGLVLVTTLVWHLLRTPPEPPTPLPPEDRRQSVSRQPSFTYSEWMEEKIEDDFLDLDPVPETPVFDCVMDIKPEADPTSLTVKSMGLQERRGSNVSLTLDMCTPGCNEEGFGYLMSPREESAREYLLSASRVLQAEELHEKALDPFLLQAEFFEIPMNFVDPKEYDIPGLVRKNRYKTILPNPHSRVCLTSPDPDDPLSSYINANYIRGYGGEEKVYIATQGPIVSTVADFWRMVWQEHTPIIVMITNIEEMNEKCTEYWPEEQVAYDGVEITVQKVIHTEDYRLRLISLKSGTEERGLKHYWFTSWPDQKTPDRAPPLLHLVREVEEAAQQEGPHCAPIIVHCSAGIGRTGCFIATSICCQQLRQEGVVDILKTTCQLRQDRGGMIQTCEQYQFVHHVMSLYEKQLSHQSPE

[4] = molecular target: Dual specificity protein phosphatase 3 (Homo sapiens, UniProt P51452); assay: VHR phosphatase inhibition, dose response, selectivity assay for STEP inhibitor project, biochemical (AID 602374); format: functional; details: read-out: IC50_Mean
Dual specificity protein phosphatase 3, sequence (P51452 whole entry): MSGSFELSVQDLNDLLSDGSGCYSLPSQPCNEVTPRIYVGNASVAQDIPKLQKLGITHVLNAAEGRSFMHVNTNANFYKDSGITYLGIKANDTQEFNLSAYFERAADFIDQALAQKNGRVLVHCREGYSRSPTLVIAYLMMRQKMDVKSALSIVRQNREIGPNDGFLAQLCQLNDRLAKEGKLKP

[5] = molecular target: Tyrosine-protein phosphatase non-receptor type 11 (Homo sapiens, UniProt Q06124); assay: SHP2 phosphatase inhibition, dose response, selectivity assay for STEP inhibitor project, biochemical (AID 602367); format: functional; details: read-out: IC50_Mean
Tyrosine-protein phosphatase non-receptor type 11, sequence (Q06124 whole entry): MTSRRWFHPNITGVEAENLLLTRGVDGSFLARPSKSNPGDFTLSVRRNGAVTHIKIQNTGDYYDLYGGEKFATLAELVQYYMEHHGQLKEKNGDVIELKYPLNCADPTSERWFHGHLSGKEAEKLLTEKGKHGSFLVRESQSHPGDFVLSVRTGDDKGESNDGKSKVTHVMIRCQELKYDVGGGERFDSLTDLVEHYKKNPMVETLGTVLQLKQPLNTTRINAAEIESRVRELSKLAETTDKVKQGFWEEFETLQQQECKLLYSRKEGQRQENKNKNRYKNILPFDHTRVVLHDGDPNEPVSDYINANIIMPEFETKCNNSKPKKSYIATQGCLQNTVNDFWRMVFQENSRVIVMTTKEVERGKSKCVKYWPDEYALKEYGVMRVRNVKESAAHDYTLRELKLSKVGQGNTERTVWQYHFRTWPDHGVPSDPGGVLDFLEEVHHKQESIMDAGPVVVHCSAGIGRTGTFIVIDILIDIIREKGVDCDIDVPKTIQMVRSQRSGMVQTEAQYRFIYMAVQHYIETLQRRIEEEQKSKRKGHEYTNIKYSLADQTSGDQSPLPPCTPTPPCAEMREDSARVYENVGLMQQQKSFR

HEK293 [6] = assay: optical interference in Abeta FP readout, dose response, artefact control for IDE activator project, biochemical, fluorescence polarization (AID 588442); format: functional, cell-based; details: Homo sapiens
Insulin-degrading enzyme [7] = molecular target: T2, Insulin-degrading enzyme (Homo sapiens, UniProt P14735); assay: activators of recombinant IDE enzyme, dose response, counter-screen for IDE activator project, biochemical, fluorescence polarization (AID 588681)
T2 sequence (P14735 whole entry): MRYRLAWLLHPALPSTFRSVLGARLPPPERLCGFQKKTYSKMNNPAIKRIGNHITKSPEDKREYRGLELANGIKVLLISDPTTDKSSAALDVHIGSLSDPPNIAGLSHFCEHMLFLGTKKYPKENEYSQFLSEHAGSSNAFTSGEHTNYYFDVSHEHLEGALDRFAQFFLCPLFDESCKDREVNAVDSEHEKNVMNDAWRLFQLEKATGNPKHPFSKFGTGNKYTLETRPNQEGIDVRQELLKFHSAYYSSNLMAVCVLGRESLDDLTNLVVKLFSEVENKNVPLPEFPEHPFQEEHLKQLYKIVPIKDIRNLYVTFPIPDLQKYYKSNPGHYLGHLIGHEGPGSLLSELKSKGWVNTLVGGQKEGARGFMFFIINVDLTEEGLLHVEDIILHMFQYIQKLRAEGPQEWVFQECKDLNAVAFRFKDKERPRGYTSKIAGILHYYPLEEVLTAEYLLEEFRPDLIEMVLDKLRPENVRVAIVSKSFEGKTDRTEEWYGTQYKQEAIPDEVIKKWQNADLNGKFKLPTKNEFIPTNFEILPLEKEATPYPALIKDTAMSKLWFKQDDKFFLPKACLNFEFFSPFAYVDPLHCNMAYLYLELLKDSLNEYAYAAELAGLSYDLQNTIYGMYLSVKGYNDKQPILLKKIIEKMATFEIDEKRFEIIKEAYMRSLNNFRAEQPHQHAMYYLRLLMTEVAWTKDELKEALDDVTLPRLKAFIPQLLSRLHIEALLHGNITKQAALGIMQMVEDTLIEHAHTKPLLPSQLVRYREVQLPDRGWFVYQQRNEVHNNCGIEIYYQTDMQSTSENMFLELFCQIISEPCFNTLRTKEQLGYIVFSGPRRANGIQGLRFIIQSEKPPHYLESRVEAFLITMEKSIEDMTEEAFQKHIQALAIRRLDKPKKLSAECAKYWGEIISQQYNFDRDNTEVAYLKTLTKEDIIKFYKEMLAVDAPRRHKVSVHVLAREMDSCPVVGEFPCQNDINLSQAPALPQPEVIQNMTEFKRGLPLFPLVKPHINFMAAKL

HEK293 [8] = assay: HEK cell cytotoxicity by LDH release, dose response, cytotoxicity control for IDE activator project, fluorescence, HEK cells (AID 588440); format: functional, cell-based; details: Homo sapiens;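 also: cytotoxicity by LDH release measuring loss of membrane integrity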
Insulin-degrading enzyme [9] = molecular target: T2, Insulin-degrading enzyme; assay: activators of endogenous IDE in HEK cells, dose response, cell-based, fluorescence polarization (AID 588439); format: functional
[10] = Counterscreen for activators of the function of SWI/SNF related, matrix associated, actin dependent regulator of chromatin, subfamily a, member 2 (SMARCA2, BRM): Luminescence-based cell-based high throughput dose response assay to identify non-selective compounds using the VP16 reporter assay.; format: functional
[11] = molecular target: Photoreceptor-specific nuclear receptor (Homo sapiens, UniProt Q9Y5X4); format: functional, cell-based;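 also: CHO-S cells with Gal4-NCOR and VP16-NR2E3 two-hybrid luciferase reporter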
Photoreceptor-specific nuclear receptor, sequence (Q9Y5X4 whole entry, the tested form may be a part): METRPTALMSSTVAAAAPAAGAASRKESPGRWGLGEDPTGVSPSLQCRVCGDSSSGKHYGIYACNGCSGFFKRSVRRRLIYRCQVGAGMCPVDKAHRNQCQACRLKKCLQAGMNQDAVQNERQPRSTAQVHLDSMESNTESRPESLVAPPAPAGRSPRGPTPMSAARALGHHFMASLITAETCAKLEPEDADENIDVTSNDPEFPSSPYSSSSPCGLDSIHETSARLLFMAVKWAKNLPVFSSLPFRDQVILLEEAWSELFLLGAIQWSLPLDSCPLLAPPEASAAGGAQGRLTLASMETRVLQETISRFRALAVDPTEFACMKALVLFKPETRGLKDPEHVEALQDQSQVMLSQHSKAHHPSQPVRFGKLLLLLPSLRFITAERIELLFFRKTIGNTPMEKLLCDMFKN

[12] = molecular target: SWI/SNF-related matrix-associated actin-dependent regulator of chromatin subfamily A member 2 (Homo sapiens, UniProt P51531); assay: Luminescence-based cell-based high throughput dose response assay to identify activators of the function of SWI/SNF related, matrix associated, actin dependent regulator of chromatin, subfamily a, member 2 (SMARCA2, BRM).; format: functional
SWI/SNF-related matrix-associated actin-dependent regulator of chromatin subfamily A member 2, sequence (P51531 whole entry, the tested form may be a part): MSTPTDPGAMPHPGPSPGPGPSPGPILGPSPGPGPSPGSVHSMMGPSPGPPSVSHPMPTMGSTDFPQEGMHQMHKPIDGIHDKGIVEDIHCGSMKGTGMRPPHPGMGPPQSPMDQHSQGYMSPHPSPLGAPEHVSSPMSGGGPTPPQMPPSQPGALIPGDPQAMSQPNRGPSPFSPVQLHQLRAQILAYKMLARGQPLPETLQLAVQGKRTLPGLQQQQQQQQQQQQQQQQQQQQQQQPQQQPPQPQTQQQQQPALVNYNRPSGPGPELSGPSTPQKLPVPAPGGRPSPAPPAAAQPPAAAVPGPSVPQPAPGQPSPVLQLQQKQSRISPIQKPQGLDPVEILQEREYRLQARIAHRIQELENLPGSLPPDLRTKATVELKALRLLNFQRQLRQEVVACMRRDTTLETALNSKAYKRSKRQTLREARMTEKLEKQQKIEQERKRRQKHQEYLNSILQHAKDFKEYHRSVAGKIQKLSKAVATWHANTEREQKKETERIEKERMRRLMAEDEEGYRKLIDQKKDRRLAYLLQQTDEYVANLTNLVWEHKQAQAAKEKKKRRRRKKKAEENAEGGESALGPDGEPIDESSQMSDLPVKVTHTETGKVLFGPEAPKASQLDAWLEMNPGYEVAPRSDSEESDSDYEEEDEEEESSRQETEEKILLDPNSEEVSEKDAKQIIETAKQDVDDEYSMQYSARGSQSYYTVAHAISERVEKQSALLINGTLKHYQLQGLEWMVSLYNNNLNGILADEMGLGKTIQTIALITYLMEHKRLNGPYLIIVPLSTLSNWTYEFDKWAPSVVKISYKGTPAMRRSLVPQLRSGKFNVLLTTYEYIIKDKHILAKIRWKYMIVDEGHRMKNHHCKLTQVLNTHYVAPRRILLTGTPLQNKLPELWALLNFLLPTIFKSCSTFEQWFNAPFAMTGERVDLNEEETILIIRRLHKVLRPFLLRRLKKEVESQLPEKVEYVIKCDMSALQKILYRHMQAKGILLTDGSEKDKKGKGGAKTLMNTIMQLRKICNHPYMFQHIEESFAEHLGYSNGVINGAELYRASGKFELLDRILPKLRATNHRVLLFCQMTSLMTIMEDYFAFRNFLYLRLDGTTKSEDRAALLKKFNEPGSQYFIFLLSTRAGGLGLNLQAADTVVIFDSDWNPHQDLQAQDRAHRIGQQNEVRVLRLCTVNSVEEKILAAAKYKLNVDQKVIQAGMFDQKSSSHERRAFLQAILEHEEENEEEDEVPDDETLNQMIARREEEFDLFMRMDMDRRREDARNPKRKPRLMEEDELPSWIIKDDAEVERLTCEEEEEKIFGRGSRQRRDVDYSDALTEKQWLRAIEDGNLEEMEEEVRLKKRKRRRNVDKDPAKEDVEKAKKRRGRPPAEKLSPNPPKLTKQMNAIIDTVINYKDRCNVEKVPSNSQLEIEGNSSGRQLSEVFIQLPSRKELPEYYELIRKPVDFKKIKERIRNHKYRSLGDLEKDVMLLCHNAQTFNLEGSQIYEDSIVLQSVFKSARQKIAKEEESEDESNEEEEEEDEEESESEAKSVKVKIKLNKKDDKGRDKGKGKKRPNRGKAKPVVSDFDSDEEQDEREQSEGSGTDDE

[13] = molecular target: T3, Carboxy-terminal domain RNA polymerase II polypeptide A small phosphatase 1 (Homo sapiens, UniProt Q9GZU7); assay: inhibitors of CTDSP1, concentration-response testing, biochemical assay, absorbance-based, actives from ultra-high-throughput screening (AID 540297); format: functional
T3 sequence (Q9GZU7 whole entry): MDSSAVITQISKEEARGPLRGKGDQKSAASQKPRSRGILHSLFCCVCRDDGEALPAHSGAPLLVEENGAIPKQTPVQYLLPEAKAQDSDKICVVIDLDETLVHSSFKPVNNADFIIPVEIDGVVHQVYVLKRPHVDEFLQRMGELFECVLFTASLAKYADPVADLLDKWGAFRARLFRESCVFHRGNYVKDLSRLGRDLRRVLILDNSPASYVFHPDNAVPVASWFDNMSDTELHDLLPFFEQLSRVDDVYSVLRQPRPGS

Caspase-6 = molecular target: T4, Caspase-6 (Homo sapiens, UniProt P55212); assay: human caspase-6 inhibitors, dose response, biochemical, VEID-R110 fluorescence, cherry-pick (AID 720632)
T4 sequence (P55212 whole entry): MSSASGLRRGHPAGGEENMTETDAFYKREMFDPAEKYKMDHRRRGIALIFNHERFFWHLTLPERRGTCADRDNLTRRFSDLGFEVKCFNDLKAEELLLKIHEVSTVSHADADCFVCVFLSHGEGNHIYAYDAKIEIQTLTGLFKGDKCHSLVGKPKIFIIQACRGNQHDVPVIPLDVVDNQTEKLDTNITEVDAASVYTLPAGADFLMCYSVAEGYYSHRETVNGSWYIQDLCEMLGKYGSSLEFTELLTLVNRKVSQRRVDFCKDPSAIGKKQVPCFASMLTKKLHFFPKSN

HEK293 [14] = assay: cells; format: functional, cell-based; details: Homo sapiens
[15] = HEp-2 cell cytotoxicity, dose response, cytotoxicity control for RSV inhibitor project, HTS (AID 2410); format: functional; details: human respiratory syncytial virus
[16] = molecular target: T5, Nuclear receptor subfamily 0 group B member 1 (Homo sapiens, UniProt P51843); assay: Luminescence-based cell-based high throughput dose response assay for inhibitors of the orphan nuclear receptor subfamily 0, group B, member 1 (DAX1; NR0B1). [Related pubchem assays (depositor defined):AID504766, AID504790]; format: functional
T5 sequence (P51843 whole entry): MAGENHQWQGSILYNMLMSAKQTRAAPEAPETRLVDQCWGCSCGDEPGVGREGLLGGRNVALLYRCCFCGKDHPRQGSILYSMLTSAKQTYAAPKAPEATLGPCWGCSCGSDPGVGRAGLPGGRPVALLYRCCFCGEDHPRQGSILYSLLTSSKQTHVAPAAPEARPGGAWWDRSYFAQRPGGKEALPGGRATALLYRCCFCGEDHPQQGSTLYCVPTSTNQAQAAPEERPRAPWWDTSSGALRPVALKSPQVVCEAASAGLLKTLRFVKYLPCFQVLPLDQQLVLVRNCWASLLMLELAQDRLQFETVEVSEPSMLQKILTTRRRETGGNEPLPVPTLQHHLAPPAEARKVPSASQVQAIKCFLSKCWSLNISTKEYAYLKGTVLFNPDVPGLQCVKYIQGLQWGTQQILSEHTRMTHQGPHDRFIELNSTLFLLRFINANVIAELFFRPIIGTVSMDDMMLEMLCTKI

[17] = molecular target: Adenosylmethionine-8-amino-7-oxononanoate aminotransferase (Mycobacterium tuberculosis, UniProt P9WQ81); assay: Mycobacterium tuberculosis BioA enzyme inhibitor Measured in Biochemical System Using Plate Reader - 2163-02_Inhibitor_Dose_CherryPick_Activity.; format: functional, Mycobacterium tuberculosis UT205
Adenosylmethionine-8-amino-7-oxononanoate aminotransferase, sequence (P9WQ81 whole entry): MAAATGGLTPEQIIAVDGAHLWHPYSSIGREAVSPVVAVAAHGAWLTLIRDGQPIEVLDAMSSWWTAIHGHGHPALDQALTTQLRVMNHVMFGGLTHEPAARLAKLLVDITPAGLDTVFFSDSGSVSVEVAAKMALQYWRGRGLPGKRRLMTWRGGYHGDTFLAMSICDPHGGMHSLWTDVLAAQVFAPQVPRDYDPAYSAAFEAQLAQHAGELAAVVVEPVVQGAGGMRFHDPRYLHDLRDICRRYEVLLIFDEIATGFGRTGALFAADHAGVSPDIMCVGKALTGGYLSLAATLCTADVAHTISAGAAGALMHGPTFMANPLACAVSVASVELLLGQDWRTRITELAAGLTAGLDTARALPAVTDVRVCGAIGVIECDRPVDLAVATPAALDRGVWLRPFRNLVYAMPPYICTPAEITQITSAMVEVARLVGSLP

Beta-2 adrenergic receptor, sequence (P07550 whole entry): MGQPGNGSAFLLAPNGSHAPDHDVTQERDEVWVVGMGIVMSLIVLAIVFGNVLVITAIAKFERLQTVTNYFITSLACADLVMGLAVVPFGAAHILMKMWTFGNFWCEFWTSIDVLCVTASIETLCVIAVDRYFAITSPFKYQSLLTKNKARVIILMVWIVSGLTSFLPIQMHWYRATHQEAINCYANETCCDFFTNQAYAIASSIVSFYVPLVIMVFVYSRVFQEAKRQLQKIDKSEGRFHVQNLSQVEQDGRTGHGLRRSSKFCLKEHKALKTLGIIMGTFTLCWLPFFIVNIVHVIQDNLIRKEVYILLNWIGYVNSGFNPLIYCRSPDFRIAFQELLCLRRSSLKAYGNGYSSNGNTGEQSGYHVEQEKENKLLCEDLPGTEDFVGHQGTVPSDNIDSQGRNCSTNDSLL

SMILES: Cc1c(C(=O)N2CCc3ccccc3C2)oc2ccc(S(=O)(=O)N3CCCCCC3)cc12
- EC50 [1]: 1.46 µM (active)

SMILES: CC(=O)c1ccc2c(c1)c(C#N)c1ccccc1[n+]2[O-]
- IC50 [2]: 88.8 µM (active)

SMILES: Cc1ccc(N=C(S)N(CCN(C)C)Cc2cccs2)c(C)c1
- IC50 [3]: 24.6 µM (inactive)
- IC50 [4]: 1.36 µM (active)
- IC50 [5]: 3.37 µM (active)

SMILES: CC(OC(=O)c1c2c(nc3ccccc13)/C(=C\c1ccc3c(c1)OCO3)CCC2)C(=O)Nc1ccc(S(N)(=O)=O)cc1 (stereo not given)
- EC50 (HEK293 [6]): > 54.7 µM (inactive)
- EC50 (Insulin-degrading enzyme [7]): > 54.7 µM (inactive)
- IC50 (HEK293 [8]): > 89.2 µM (inactive)
- EC50 (Insulin-degrading enzyme [9]): > 54.7 µM (inactive)

SMILES: O=C(NC1(Cc2ccc(O)cc2)CCCCC1)c1ccccc1
- EC50 [1]: 7.42 µM (active)

SMILES: Cc1cccc(C(=O)N[C@H](C(=O)Nc2ncc(C)s2)C(C)C)c1
- EC50 [10]: > 91.1 µM (inactive)
- IC50 [11]: 0.0592 µM (active)
- EC50 [12]: > 91.1 µM (inactive)

SMILES: O=S(=O)(Nc1ccccc1)c1cccc2nsnc12
- IC50 [3]: 35.1 µM (inactive)
- IC50 [4]: 2.91 µM (active)
- IC50 [13]: 6.86 µM (active)
- IC50 [5]: 3.9 µM (active)
- AC50 (Caspase-6): 8.86 µM (active)

SMILES: Cn1c(CN2CCOCC2)nnc1SCC(=O)Nc1ccc([N+](=O)[O-])cc1O
- EC50 (HEK293 [6]): > 54.7 µM (inactive)
- EC50 (Insulin-degrading enzyme [7]): > 54.7 µM (inactive)
- IC50 (HEK293 [8]): > 89.2 µM (inactive)
- EC50 (Insulin-degrading enzyme [9]): > 54.7 µM (inactive)

SMILES: N#C/C(=C/c1ccc(-c2cc([N+](=O)[O-])ccc2Cl)o1)C(N)=O
- IC50 (HEK293 [14]): > 67.6 µM (inactive)
- CC50 [15]: 16.6 µM (active)
- IC50 [16]: > 67.6 µM (inactive)

SMILES: Cc1ccc(S(=O)(=O)OCCC2=CC(=O)CCN2Cc2ccccc2)cc1
- EC50 (HEK293 [6]): > 55.9 µM (inactive)
- EC50 (Insulin-degrading enzyme [7]): > 54.7 µM (inactive)
- IC50 (HEK293 [8]): > 89.1 µM (inactive)
- EC50 (Insulin-degrading enzyme [9]): > 54.7 µM (inactive)

SMILES: CCCCN(C)C(=O)Cn1nc(Cc2ccncc2)c2ccccc2c1=O
- IC50 (HEK293 [14]): > 67.5 µM (inactive)
- IC50 [16]: > 67.5 µM (inactive)

SMILES: O=C(C1CC1)N1CC[C@@H]2[C@H]1c1cc(Br)ccc1N[C@@H]2CO
- AC50 [17]: 7.01 µM (active)

SMILES: CN1c2ccc(-c3cccc(F)c3)cc2[C@H]2[C@H](CCN2C(=O)c2ccncc2)[C@@H]1CO
- AC50 [17]: 7.24 µM (active)

SMILES: Cc1[nH]c2ccccc2c1/C=N/NC(=O)c1cccc(F)c1
- IC50 (HEK293 [14]): > 67.5 µM (inactive)
- IC50 [16]: > 67.5 µM (inactive)
